US11241500B2, “HSP90-targeting conjugates and formulations thereof” (TARVEDA THERAPEUTICS, INC., priority 2016, dated 2022)
Where two headings read alike, the source gives them in different places. One block for each compound: values may come before it.

How the values were obtained:
[1] = In vivo tumor PK study, MDA-MB-231 breast cancer tumor line mouse model
Experimental: (§1) A tumor PK study was conducted with HSP90-binding conjugate Compound 12 in a MDA-MB-231 breast cancer tumor line mouse model. The payload on Compound 12 is the PI3K inhibitor PI-103. Both PI-103 and Compound 12 were given as a single dose at 0 hours to separate groups of mice and their concentrations in tumors were collected over time.

[2] = test system: HCT-116 (human colon carcinoma); experiment: PI3K viability assay, HCT-116 cells; type: cell-based
Experimental: (§2) PI3K viability assays were carried out on the payloads and conjugates. HCT-116 (human colon carcinoma), NCI-H460 (human non-small cell lung carcinoma), and NCI-H1048 (small cell lung cancer) cells were treated with conjugates and payloads for 4 hours. After 4 hours, compounds were washed out and cells assayed for viability 72 hrs post wash out.

[3] = test system: NCI-H1048 (small cell lung cancer); experiment: PI3K viability assay, NCI-H1048 cells; type: cell-based; settings: Homo sapiens
Experimental: as §2

[4] = In vivo tumor PK study, HCT116 colon cancer tumor line mouse model; settings: single dose at 0 hours, FIG. 4
Experimental: as §1, with “HCT116 colon” for “MDA-MB-231 breast”

[5] = test system: NCI-H460 (human non-small cell lung carcinoma); experiment: PI3K viability assay, NCI-H460 cells; type: cell-based
Experimental: as §2

[6] = Stability of PARP inhibiting (olaparib) conjugates in plasma and tumor tissue, release of olaparib; type: in vitro ADME; settings: for Release of olaparib in plasma and tumor: plasma and tumor tissues, FIG. 1A-E
Experimental: Stabilities of conjugates comprising PARP inhibitor olaparib and HSP90 binding moieties were studied and the conversions of the conjugates to Olaparib were monitored.
In one study, concentrations of Compounds 4, 5, 6 and olaparib released from them in plasma and tumor tissue were monitored (FIG. 1A, FIG. 1B, and FIG. 1C). The linkers were cleaved to release olaparib, thus concentrations of olaparib increased over time. Half times of Compounds 4, 5, and 6 were calculated. […]

[7] = test system: HCT-116, NCI-H460, and NCI-H1048 cells; experiment: PI3K viability assays, summary over the three cell lines; type: cell-based, human; settings: 4 hours treatment, viability 72 hrs post wash out
Experimental: as §2

[8] = Stability of PI3K inhibiting conjugates at 37° C. in plasma and tumor homogenates
Description: Stabilities of conjugates comprising PI3K inhibitors and HSP90 binding moieties were studied.

[9] = test system: Caspase-9; experiment: PI3K Caspase-9 assay with HCT-116 cells; type: cell-based, human; settings: 4 hour treatment, assayed 24, 48, 72 hrs
Experimental: Caspase-9 is activated during apoptosis and is an indicator of apoptosis and cytokine processing. PI3K Caspase-9 assay was conducted with HCT-116 cells. HCT-116 cells were treated with conjugates and payloads for 4 hours. After 4 hours, compounds were washed out and cells were assayed for Caspase-9 24, 48, 72, and 144 hrs. Untreated cells were not viable at 144 hrs. Caspase-9 levels 24 hours, 48 hours, and 72 hours after 4 hour treatment with Compound 10, Compound 12, Compound 13, PF-0461502, Compound 11, T-1634, and BAY80-6946 were shown in FIG. 3.

[10] = HCT-116, 4 hours treatment, wash out, viability 72 hrs post wash out, Run 1, read-out: IC50 HCT-116 Run 1
[11] = NCI-H1048, 4 hours treatment, wash out, viability 72 hrs post wash out, Run 1, read-out: IC50 NCI-H1048 Run 1
[12] = NCI-H1048, 4 hours treatment, wash out, viability 72 hrs post wash out, Run 2, read-out: IC50 NCI-H1048 Run 2
[13] = NCI-H460, 4 hours treatment, wash out, viability 72 hrs post wash out, Run 1, read-out: IC50 NCI-H460 Run 1
[14] = NCI-H460, 4 hours treatment, wash out, viability 72 hrs post wash out, Run 2, read-out: IC50 NCI-H460 Run 2
[15] = plasma, Table 1, read-out: Plasma t1/2 (converted)
[16] = tumor tissue, Table 1, read-out: Tumor t1/2 (converted)
[17] = plasma, Table 3, read-out: Plasma t1/2 (converted)
[18] = tumor tissue, Table 3, read-out: Tumor t1/2 (converted)
[19] = HCT-116, 4 hours treatment, wash out, viability 72 hrs post wash out, Run 2, read-out: IC50 HCT-116 Run 2
[20] = HCT-116, read-out: IC50 HCT-116 Run 2
[21] = NCI-H1048, read-out: IC50 NCI-H1048 Run 2
[22] = NCI-H460, read-out: IC50 NCI-H460 Run 2

Compound: Oc1cccc(-c2nc(N3CCOCC3)c3oc4ncccc4c3n2)c1 [PI-103, reference compound]
Concentrations in tumors over time ([1]; mouse, in vivo): detected at 1 hour and then fell to a low level at 24 h
IC50 [2, 10]: ~16500 µM
IC50 [3, 11]: 1.94 µM
IC50 [3, 12]: 2.5 µM
Concentrations in tumors over time [4]: detected at 1 hour and then fell below limit of detection
IC50 [5, 13]: 2.85 µM
IC50 [5, 14]: 4.34 µM

Release of olaparib in plasma and tumor [6]: release olaparib in plasma and tumor
half-life [6, 15]: 35 h
half-life [6, 16]: 4.5 h
Compound: CC(C)c1cc(-c2nnc(O)n2-c2ccc3c(ccn3CCC3CCN(CCC(C)(C)SSCCOC(=O)N(CCN(C)C)Cn4nc(Cc5ccc(F)c(C(=O)N6CCN(C(=O)C7CC7)CC6)c5)c5ccccc5c4=O)CC3)c2)c(O)cc1O [Compound 5]
Relative stability in plasma and tumor ([6]; plasma and tumor): more stable than Compound 4 and Compound 6 in both plasma and tumor

Release of olaparib in plasma and tumor [6]: release olaparib in plasma and tumor
half-life [6, 17]: 43 h
half-life [6, 18]: 4 h
Compound: CC(C)c1cc(-c2nnc(O)n2-c2ccc(CN3CCN(CCC(C)(C)SSCCOC(=O)N(CCN(C)C)Cn4nc(Cc5ccc(F)c(C(=O)N6CCN(C(=O)C7CC7)CC6)c5)c5ccccc5c4=O)CC3)cc2)c(O)cc1O [Compound 7]

Compound: CC(C)c1cc(-c2nnc(O)n2-c2ccc3c(ccn3CCC3CCN(C(=O)Oc4cccc(-c5nc(N6CCOCC6)c6oc7ncccc7c6n5)c4)CC3)c2)c(O)cc1O [Compound 10]
Activity in viability assays relative to payload [7]: appeared to lose activity
IC50 [2, 19]: ~15500 µM
Stability in plasma versus tumor homogenates ([8]; 37° C.): less stable in plasma than in tumor homogenates
Cleavage of carbamate groups ([8]; plasma): cleaved in plasma by carboxylesterase
IC50 [3, 11]: 40.4 µM
IC50 [3, 12]: ~9160 µM
Caspase-9 signal [9]: Lack or decrease in signal
IC50 [5, 13]: ~3220 µM

IC50 [2, 10]: 3.42 µM
IC50 [3, 11]: 0.13 µM
IC50 [5, 13]: 0.62 µM
Compound: COc1c(OCCCN2CCOCC2)ccc2c1N=C(NC(=O)c1cnc(N)nc1)N1CCN=C21 [BAY80-6946, Copanlisib, reference compound]

Compound: CC(C)c1cc(-c2nnc(O)n2-c2ccc(CN3CCN(C(=O)Oc4cccc(-c5nc(N6CCOCC6)c6oc7ncccc7c6n5)c4)CC3)cc2)c(O)cc1O [Compound 12]
Activity in viability assays relative to payload [7]: retained activity similar to PI-103 payload
Concentrations in tumors over time ([1]; single dose at 0 hours, MDA-MB-231 tumor, FIG. 5): accumulation of the conjugate, retention of the conjugate and sustained release of the payload over time
IC50 [2, 20]: 3.94 µM
IC50 [3, 21]: 1.27 µM
Concentrations in tumors over time [4]: accumulation of the conjugate, retention of the conjugate and sustained release of the payload over time
Caspase-9 signal [9]: appears to retain activity similar to payload (PI-103) and ligand (ganetespib)
IC50 [5, 22]: 1.95 µM

Compound: CC(C)c1cc(-c2nnc(O)n2-c2ccc(CN3CCN(C(=O)NC(CSSCCNC(=O)Oc4cccc(-c5nc(N6CCOCC6)c6oc7ncccc7c6n5)c4)C(N)=O)CC3)cc2)c(O)cc1O (stereo not drawn) [Compound 13]
Activity in viability assays relative to payload [7]: retained activity similar to PI-103 payload
IC50 [2, 20]: 10.7 µM
IC50 [3, 21]: 2.9 µM
Caspase-9 signal [9]: Lack or decrease in signal
IC50 [5, 22]: 8.2 µM

Release of olaparib in plasma and tumor [6]: release olaparib in plasma and tumor
half-life [6, 15]: 4.5 h
half-life [6, 16]: 0.64 h
Compound: CC(C)c1cc(-c2nnc(O)n2-c2ccc3c(ccn3CCC3CCN(CCC(C)(C)SSCCOC(=O)NCn4nc(Cc5ccc(F)c(C(=O)N6CCN(C(=O)C7CC7)CC6)c5)c5ccccc5c4=O)CC3)c2)c(O)cc1O [Compound 4]

Release of olaparib in plasma and tumor [6]: release olaparib in plasma and tumor
half-life [6, 17]: 46 h
half-life [6, 18]: 24 h
Compound: CC(C)c1cc(-c2nnc(O)n2-c2ccc(CN3CCN(CCC(C)(C)SSc4ccc(COC(=O)N(CCN(C)C)Cn5nc(Cc6ccc(F)c(C(=O)N7CCN(C(=O)C8CC8)CC7)c6)c6ccccc6c5=O)cc4)CC3)cc2)c(O)cc1O [Compound 8]

IC50 [2, 10]: 1.5 µM
IC50 [3, 11]: 0.21 µM
IC50 [5, 13]: 0.19 µM
Compound: COc1ncc(-c2ccc3nccc(-c4ccnnc4)c3c2)cc1NS(=O)(=O)c1ccc(F)cc1F [GSK-2126458, Omipalisib, reference compound]

IC50 [2, 10]: 45.4 µM
IC50 [2, 19]: 11.3 µM
IC50 [3, 11]: 3.36 µM
IC50 [3, 12]: 2.63 µM
IC50 [5, 13]: 8.98 µM
IC50 [5, 14]: 3.53 µM
Compound: COc1ccc(-c2cc3c(C)nc(N)nc3n([C@H]3CC[C@H](OCCO)CC3)c2=O)cn1 [PF-04691502, reference compound]

Release of olaparib in plasma and tumor [6]: release olaparib in plasma and tumor
half-life [6, 15]: 4.8 h
half-life [6, 16]: 0.27 h
Compound: CC(C)c1cc(-c2nnc(O)n2-c2ccc3c(ccn3CCC3CCN(CCCSSCCOC(=O)N(CCN(C)C)Cn4nc(Cc5ccc(F)c(C(=O)N6CCN(C(=O)C7CC7)CC6)c5)c5ccccc5c4=O)CC3)c2)c(O)cc1O [Compound 6]

Compound: COc1ccc(-c2cc3c(C)nc(N)nc3n([C@H]3CC[C@H](OCCOC(=O)N4CCC(CCn5ccc6cc(-n7c(O)nnc7-c7cc(C(C)C)c(O)cc7O)ccc65)CC4)CC3)c2=O)cn1 [Compound 11]
IC50 [2, 10]: 10.2 µM
IC50 [2, 19]: 5.59 µM
Cleavage of carbamate groups [8]: cleaved in plasma by carboxylesterase
Stability in plasma versus tumor homogenates [8]: less stable in plasma than in tumor homogenates
IC50 [3, 11]: 1.77 µM
IC50 [3, 12]: 1.99 µM
IC50 [5, 13]: 3.64 µM
IC50 [5, 14]: 3.66 µM
